Measured values reported in ChEMBL document CHEMBL3611986, “Reversal of P-gp and BCRP-mediated MDR by tariquidar derivatives” (Eur J Med Chem, 2015).
Active and inactive are the calls of the source. No cut-off for these calls is given here.

Tests used:
[1] = biological target: T1, Broad substrate specificity ATP-binding cassette transporter ABCG2 (Homo sapiens, UniProt Q9UNQ0); assay: Induction of 5D3 antibody binding to BCRP in human K562 cells at 0.5 uM preincubated for 10 mins followed by antibody addition measured after 45 mins by flow cytometry relative to tariquidar; format: cell-based; conditions: k562, 0.75 h
T1 sequence (Q9UNQ0 whole entry): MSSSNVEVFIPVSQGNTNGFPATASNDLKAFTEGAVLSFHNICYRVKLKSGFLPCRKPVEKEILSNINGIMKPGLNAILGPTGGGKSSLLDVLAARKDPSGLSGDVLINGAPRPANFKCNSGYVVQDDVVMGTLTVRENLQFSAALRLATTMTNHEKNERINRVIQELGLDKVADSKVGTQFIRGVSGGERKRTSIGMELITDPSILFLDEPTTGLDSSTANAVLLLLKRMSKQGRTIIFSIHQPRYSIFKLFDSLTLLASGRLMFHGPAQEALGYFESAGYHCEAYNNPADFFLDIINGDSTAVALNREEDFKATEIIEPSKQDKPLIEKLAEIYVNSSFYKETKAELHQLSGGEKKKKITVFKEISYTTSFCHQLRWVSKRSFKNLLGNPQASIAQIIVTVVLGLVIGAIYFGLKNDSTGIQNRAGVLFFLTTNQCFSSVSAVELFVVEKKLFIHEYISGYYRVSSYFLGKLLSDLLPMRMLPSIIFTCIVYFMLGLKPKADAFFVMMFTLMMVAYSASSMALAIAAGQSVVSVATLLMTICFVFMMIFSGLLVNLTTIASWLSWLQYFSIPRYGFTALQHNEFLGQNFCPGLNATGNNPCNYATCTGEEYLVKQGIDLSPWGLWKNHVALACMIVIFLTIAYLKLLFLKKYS

[2] = biological target: T2, ATP-dependent translocase ABCB1 (Homo sapiens, UniProt P08183); assay: Inhibition of p-glycoprotein in human HepG2 cells assessed as increase of doxorubicin-induced cytotoxicity at 200 nM after 72 hrs by SRB assay relative to control; format: cell-based; conditions: hepg2, 72 h, 0.2 µM
T2 sequence (P08183 whole entry): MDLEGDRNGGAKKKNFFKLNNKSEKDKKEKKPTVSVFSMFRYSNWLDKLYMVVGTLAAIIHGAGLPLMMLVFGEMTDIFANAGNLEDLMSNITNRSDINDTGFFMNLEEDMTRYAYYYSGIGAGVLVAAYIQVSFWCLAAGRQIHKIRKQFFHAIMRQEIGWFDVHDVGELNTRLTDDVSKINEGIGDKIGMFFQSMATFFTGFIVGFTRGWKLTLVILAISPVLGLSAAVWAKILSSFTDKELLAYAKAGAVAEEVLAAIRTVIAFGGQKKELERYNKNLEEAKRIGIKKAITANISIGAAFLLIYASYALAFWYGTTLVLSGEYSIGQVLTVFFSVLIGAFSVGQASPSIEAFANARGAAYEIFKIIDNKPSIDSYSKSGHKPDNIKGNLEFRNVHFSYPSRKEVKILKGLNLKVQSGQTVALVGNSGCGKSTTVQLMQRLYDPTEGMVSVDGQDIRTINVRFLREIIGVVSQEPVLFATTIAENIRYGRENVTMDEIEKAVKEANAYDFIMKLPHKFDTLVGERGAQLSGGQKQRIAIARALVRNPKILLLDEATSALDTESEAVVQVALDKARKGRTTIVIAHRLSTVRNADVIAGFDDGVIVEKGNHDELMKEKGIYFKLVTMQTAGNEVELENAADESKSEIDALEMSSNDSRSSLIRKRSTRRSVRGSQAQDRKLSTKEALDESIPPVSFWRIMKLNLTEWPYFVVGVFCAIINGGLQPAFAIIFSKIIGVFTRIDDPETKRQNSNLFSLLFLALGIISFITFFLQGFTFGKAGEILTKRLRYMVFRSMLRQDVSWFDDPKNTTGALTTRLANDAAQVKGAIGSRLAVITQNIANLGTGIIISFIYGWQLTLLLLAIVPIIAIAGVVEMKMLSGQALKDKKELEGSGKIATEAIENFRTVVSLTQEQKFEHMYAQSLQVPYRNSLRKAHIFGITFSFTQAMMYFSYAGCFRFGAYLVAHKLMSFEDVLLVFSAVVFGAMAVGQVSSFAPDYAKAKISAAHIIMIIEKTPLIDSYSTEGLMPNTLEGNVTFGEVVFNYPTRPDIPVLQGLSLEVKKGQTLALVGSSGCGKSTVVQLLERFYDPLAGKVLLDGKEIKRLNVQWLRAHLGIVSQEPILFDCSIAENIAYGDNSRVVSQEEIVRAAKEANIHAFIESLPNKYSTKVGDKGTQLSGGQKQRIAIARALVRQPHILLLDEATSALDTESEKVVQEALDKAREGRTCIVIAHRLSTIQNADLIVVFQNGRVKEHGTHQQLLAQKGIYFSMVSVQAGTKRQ

[3] = Cytotoxicity against human LCC6 cells at 200 nM after 72 hrs by SRB assay; format: cell-based; conditions: lcc6, 72 h, 0.2 µM
[4] = tested on: HepG2; assay: Cytotoxicity against human HepG2 cells expressing p-glycoprotein at 200 nM after 72 hrs by SRB assay; format: cell-based; conditions: hepg2, 72 h, 0.2 µM
[5] = biological target: T2, ATP-dependent translocase ABCB1; assay: Inhibition of p-glycoprotein in human LCC6/MDR cells assessed as increase of paclitaxel-induced cytotoxicity at 200 nM after 72 hrs by SRB assay relative to control; format: cell-based; conditions: 0.2 µM
[6] = biological target: T1, Broad substrate specificity ATP-binding cassette transporter ABCG2; assay: Induction of BCRP (unknown origin) expressed in High five insect cell membranes assessed as ATP hydrolysis after 10 mins by colorimetric ATPase assay
[7] = biological target: T2, ATP-dependent translocase ABCB1; assay: Inhibition of p-glycoprotein in human SW620/AD300 cells assessed as increase of doxorubicin-induced cytotoxicity at 200 nM after 72 hrs by SRB assay relative to control; format: cell-based; conditions: sw-620, 72 h, 0.2 µM
[8] = tested on: Hepatocyte; assay: Cytotoxicity against rat hepatocytes assessed as cell viability after 72 hrs by MTT assay; format: cell-based; conditions: for Activity: rat, hepatocytes; for IC50: Rattus norvegicus, Hepatocyte
[9] = species on record: Homo sapiens; assay: Inhibition of p-glycoprotein (unknown origin) expressed in High five insect cell membranes assessed as ATP hydrolysis after 20 mins by colorimetric ATPase assay
[10] = tested on: HepG2; assay: Cytotoxicity against human HepG2 cells at 200 nM after 72 hrs by SRB assay; format: cell-based; conditions: hepg2, 72 h, 0.2 µM
[11] = tested on: K562; assay: Induction of UIC2 antibody binding to p-glycoprotein in human K562 cells at 0.5 uM preincubated for 10 mins followed by antibody addition measured after 45 mins by flow cytometry relative to tariquidar; format: cell-based
[12] = tested on: K562; assay: Effect on rhodamine-123 efflux in wild type human K562 cells at 0.5 uM after 1 hr by flow cytometry; format: ADME, cell-based; conditions: k562, 1 h
[13] = biological target: Multidrug resistance-associated protein 1 (Homo sapiens, UniProt P33527); assay: Inhibition of MRP1 (unknown origin)-mediated calcein-AM efflux expressed in HEK293/MRP1 cells at 0.5 uM after 1 hr by flow cytometry; format: cell-based; conditions: hek293/mrp1, 1 h
Multidrug resistance-associated protein 1, sequence (P33527 whole entry): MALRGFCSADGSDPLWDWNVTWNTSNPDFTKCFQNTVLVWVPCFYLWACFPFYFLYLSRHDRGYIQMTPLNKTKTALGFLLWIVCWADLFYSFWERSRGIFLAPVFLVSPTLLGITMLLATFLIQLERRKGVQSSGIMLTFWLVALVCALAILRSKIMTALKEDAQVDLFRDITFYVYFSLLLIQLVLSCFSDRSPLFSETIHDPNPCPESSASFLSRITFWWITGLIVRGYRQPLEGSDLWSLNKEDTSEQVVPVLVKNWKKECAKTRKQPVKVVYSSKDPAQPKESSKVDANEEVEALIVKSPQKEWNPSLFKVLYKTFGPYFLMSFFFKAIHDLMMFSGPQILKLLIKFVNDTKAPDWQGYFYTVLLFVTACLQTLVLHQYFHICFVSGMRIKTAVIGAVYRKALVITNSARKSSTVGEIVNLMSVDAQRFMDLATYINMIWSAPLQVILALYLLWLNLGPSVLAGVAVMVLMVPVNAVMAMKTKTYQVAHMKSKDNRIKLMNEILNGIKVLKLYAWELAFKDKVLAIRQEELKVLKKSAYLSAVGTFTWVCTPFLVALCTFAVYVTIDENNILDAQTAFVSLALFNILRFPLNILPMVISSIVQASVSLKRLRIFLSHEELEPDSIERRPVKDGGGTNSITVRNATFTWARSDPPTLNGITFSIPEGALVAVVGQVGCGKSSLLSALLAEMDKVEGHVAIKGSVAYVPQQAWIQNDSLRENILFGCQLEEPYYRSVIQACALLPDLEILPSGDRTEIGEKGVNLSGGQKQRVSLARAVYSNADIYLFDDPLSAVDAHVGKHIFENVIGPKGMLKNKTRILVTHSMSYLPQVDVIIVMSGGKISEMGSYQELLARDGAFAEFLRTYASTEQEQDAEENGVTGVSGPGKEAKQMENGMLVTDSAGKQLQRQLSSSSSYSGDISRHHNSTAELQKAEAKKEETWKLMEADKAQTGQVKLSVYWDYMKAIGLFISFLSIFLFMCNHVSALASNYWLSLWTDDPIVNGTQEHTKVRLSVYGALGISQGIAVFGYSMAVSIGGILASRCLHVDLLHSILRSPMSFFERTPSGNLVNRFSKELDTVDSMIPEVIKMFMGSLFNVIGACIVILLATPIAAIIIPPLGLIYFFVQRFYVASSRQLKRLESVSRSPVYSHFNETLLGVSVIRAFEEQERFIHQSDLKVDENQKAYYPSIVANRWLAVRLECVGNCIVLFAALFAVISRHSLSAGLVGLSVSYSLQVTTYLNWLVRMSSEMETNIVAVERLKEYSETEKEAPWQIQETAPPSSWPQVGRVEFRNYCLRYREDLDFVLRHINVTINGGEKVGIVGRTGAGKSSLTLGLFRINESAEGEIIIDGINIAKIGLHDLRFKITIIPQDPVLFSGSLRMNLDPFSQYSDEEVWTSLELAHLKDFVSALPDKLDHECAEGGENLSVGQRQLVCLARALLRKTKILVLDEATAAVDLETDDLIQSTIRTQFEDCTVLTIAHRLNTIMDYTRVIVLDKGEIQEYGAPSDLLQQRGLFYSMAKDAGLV

[14] = biological target: T1, Broad substrate specificity ATP-binding cassette transporter ABCG2; assay: (§1) Inhibition of BCRP-mediated pheophorbide-A efflux in human K562/BCRP cells at 0.5 uM after 1 hr by flow cytometry; format: cell-based; conditions: k562/bcrp, 1 h, 0.5 µM
[15] = tested on: SW-620; assay: Cytotoxicity against human SW620 cells at 200 nM after 72 hrs by SRB assay; format: cell-based; conditions: sw-620, 72 h, 0.2 µM
[16] = Cytotoxicity against human LCC6 cells expressing p-glycoprotein at 200 nM after 72 hrs by SRB assay; format: cell-based; conditions: lcc6, 72 h, 0.2 µM
[17] = Potentiation of paclitaxel-induced cytotoxicity against human LCC6 cells at 200 nM after 72 hrs by SRB assay relative to control; format: functional
[18] = tested on: HCT-116; assay: Cytotoxicity against human HCT116 cells assessed as cell viability after 48 hrs by MTT assay; format: cell-based; conditions: HCT-116, 48 h
[19] = Cytotoxicity against human SW620/AD300 cells expressing p-glycoprotein at 200 nM after 72 hrs by SRB assay; format: cell-based; conditions: sw-620, 72 h, 0.2 µM
[20] = tested on: HepG2; assay: Potentiation of doxorubicin-induced cytotoxicity against human HepG2 cells at 200 nM after 72 hrs by SRB assay relative to control; format: functional
[21] = tested on: SW-620; assay: Cytotoxicity against human SW620 cells assessed as cell viability after 48 hrs by MTT assay; format: cell-based; conditions: SW-620, 48 h
[22] = biological target: T2, ATP-dependent translocase ABCB1; assay: (§2) Inhibition of p-glycoprotein-mediated rhodamine-123 efflux in human K562/p-gp cells at 0.5 uM after 1 hr by flow cytometry relative to tariquidar; format: cell-based; conditions: 1 h, 0.5 µM
[23] = Cytotoxicity against human MCF-7 FLV1000 cells expressing BCRP at 200 nM after 72 hrs by SRB assay; format: ADME, cell-based; conditions: mcf-7 flv1000, 72 h, 0.2 µM
[24] = tested on: MCF7; assay: Cytotoxicity against human MCF7 cells at 200 nM after 72 hrs by SRB assay; format: cell-based; conditions: mcf7, 72 h, 0.2 µM
[25] = tested on: MCF7; assay: Potentiation of mitoxantrone-induced cytotoxicity against human MCF7 cells at 200 nM after 72 hrs by SRB assay relative to control; format: functional
[26] = biological target: T2, ATP-dependent translocase ABCB1; assay: Inhibition of p-glycoprotein-mediated rhodamine-123 efflux in human K562/p-gp cells after 1 hr by flow cytometry; format: cell-based
[27] = Cytotoxicity against human HFE cells assessed as cell viability after 72 hrs by MTT assay; format: cell-based
[28] = biological target: T1, Broad substrate specificity ATP-binding cassette transporter ABCG2; assay: Inhibition of BCRP in human MCF-7 FLV1000 cells assessed as increase of mitoxantrone-induced cytotoxicity at 200 nM after 72 hrs by SRB assay relative to control; format: cell-based; conditions: 0.2 µM
[29] = Cytotoxicity against human CCD-18Co cells assessed as cell viability after 48 hrs by MTT assay; format: cell-based
[30] = Cytotoxicity against human SW620/AD300 cells assessed as cell viability after 48 hrs by MTT assay; format: cell-based; conditions: SW-620, 48 h
[31] = tested on: SW-620; assay: Potentiation of doxorubicin-induced cytotoxicity against human SW620 cells at 200 nM after 72 hrs by SRB assay relative to control; format: functional
[32] = biological target: P-glycoprotein (ABCB1) (Homo sapiens, UniProt P08183); assay: as §2; format: cell-based; conditions: K562/p-gp cells, probe rhodamine-123
P-glycoprotein (ABCB1), sequence (P08183 whole entry): as the sequence (P08183 whole entry) above

[33] = biological target: T2, ATP-dependent translocase ABCB1; assay: Inhibition of p-glycoprotein-mediated doxorubicin efflux in human K562/p-gp cells at 1 uM after 1 hr by flow cytometry; format: cell-based
[34] = biological target: T3, BCRP (ABCG2) (Homo sapiens, UniProt Q9UNQ0); assay: as §1; format: cell-based; conditions: K562/BCRP cells, probe pheophorbide-A
T3 sequence (Q9UNQ0 whole entry): T1 sequence (Q9UNQ0 whole entry)

Row | Compound | Activity [1] | Activity [3] | fold change (FC) [5] | Activity [6] | inhibition [9] | Activity [11] | Activity [12] | inhibition (INH) [13] | Activity [16] | fold change (FC) [17] | IC50 [18] [µM] | IC50 [21] [µM] | inhibition (INH) [22] | Activity [23] | Activity [24] | fold change (FC) [25] | inhibition (INH) [26] | IC50 [27] [µM] | IC50 [29] [µM] | IC50 [30] [µM] | further results
1 | COc1cc2c(cc1OC)CN(CCc1ccc(NC(=O)c3ccccc3NC(=O)c3ccco3)cc1)CC2 | 149.4% | Non-toxic | 46 | Active | Dose-dependent effect | 35.5% | Non-toxic | Not Active | Non-toxic | 1.3 | > 100 | > 100 | Active | Non-toxic | Non-toxic | 1.4 | Dose-dependent effect | > 100 | > 100 | > 100 | fold change (FC) [2]: 3; Activity [4]: Non-toxic; fold change (FC) [7]: 2.63; Activity [8]: Non-toxic; Activity [10]: Non-toxic; inhibition (INH) [14]: Active; Activity [15]: Non-toxic; Activity [19]: Non-toxic; fold change (FC) [20]: 1.09; fold change (FC) [28]: 2.1; fold change (FC) [31]: 2.1
2 | COc1cc2c(cc1OC)CN(CCc1ccc(NC(=O)c3ccccc3NC(=O)c3cnc4ccccc4c3)cc1)CC2 | 90.7% | Non-toxic | 2.8 | Active | Dose-dependent effect | 93.2% | Non-toxic | Not Active | Non-toxic | 0.9 | > 100 | > 100 |  | Non-toxic | Non-toxic | 1.3 | Dose-dependent effect | > 5 | > 100 | > 100 | fold change (FC) [2]: 0.38; Activity [4]: Non-toxic; fold change (FC) [7]: 6.23; IC50 [8]: 50 µM; Activity [10]: Non-toxic; inhibition (INH) [14]: Active; Activity [15]: Non-toxic; Activity [19]: Non-toxic; fold change (FC) [20]: 0.29; inhibition at 1 h, 0.5 µM [32]: 90.5%; inhibition (INH) [33]: Active; fold change (FC) [28]: 2.9; fold change (FC) [31]: 0.36
3 | COc1cc2c(cc1OC)CN(CCc1ccc(NC(=O)c3ccccc3NC(=O)/C=C/c3ccccc3)cc1)CC2 | 118.6% | Non-toxic | 33 | Active | Dose-dependent effect | 46.3% | Non-toxic | Not Active | Non-toxic | 1.6 | > 100 | > 100 | Active | Non-toxic | Non-toxic | 1.5 | Dose-dependent effect | > 20 | > 100 | > 100 | IC50 [8]: 100 µM; inhibition at 1 h, 0.5 µM [34]: 60%; fold change (FC) [28]: 64
4 | COc1cc2c(cc1OC)CN(CCc1ccc(NC(=O)c3ccccc3N(S(=O)(=O)c3ccc(Br)cc3)S(=O)(=O)c3ccc(Br)cc3)cc1)CC2 |  | Non-toxic | 36 |  | Dose-dependent effect | 47% | Non-toxic | Not Active | Non-toxic | 1.3 | > 100 | > 100 | Active |  |  |  | Dose-dependent effect | > 5 | > 100 | > 100 | Activity [8]: Non-toxic; inhibition (INH) [33]: Active
5 | COc1cc2c(cc1OC)CN(CCc1ccc(NC(=O)c3ccccc3NS(=O)(=O)c3ccc(C(C)(C)C)cc3)cc1)CC2 | Not Active |  |  |  |  | inactive |  | Not Active |  |  | > 100 | > 100 |  |  |  |  |  | > 100 | > 100 | > 100 | inhibition (INH) [33]: Active
6 | COc1cc2c(cc1OC)CN(CCc1ccc(NC(=O)c3ccccc3NC(=O)c3ccc(F)cc3[N+](=O)[O-])cc1)CC2 | 119.1% | Non-toxic | 35 | Active | Dose-dependent effect | 57.3% | Non-toxic | Not Active | Non-toxic | 1.1 | > 100 | > 100 | Active | Non-toxic | Non-toxic | 1.7 | Dose-dependent effect | > 10 | > 100 | > 100 | fold change (FC) [2]: 0.36; Activity [4]: Non-toxic; fold change (FC) [7]: 3.62; IC50 [8]: 100 µM; Activity [10]: Non-toxic; inhibition at 1 h, 0.5 µM [34]: 60%; Activity [15]: Non-toxic; Activity [19]: Non-toxic; fold change (FC) [20]: 0.76; fold change (FC) [28]: 46; fold change (FC) [31]: 1.6
